PubChem BioAssay AID1117337 (Cheminformatics & Chemogenomics Research Group (CCRG), …, 2015)
Calls of active or inactive are those of the source. No rule for the calls is given here.

System: ADSC/ECFC co-culture, VEGF-stimulated, CD31 tube area
Test: ADSC/ECFC co-culture angiogenesis inhibition – imaging, VEGF stimulation, CD31 staining, tube area, IC50, dose response (AID 1117337)

| SMILES | IC50 |
| --- | --- |
| CCOC(=O)C=C(C)C=CC[C@@H](C)CCCC(C)C | > 10 µM (inactive) |
| Nc1cc(C(F)(F)F)ccc1S | > 10 µM (inactive) |
| CCCCCCC[N+](CC)(CC)CCCCc1ccc(Cl)cc1 | 6.34 µM (inactive) |
| O=C1C2CC=CCC2C(=O)N1SC(Cl)(Cl)Cl (centres undefined) | > 10 µM (inactive) |
| C[n+]1cc2c3c(ccc2c2ccc4cc5c(cc4c21)OCO5)OCO3 | 0.537 µM |
| Nc1nc(=S)c2[nH]cnc2[nH]1 | 0.622 µM |
| CC(C)=CCC/C(C)=C/CC/C(C)=C/C(=O)OCC(=O)[C@@]1(O)CC[C@H]2[C@@H]3CCC4=CC(=O)C=C[C@]4(C)[C@H]3[C@@H](O)C[C@@]21C | 3.34 µM |
| O[C@@H](CNC[C@H](O)[C@H]1CCc2cc(F)ccc2O1)[C@@H]1CCc2cc(F)ccc2O1 | > 10 µM (inactive) |
| CN1CC[C@H](c2c(O)cc(O)c3c(=O)cc(-c4ccccc4Cl)oc23)[C@H](O)C1 | 0.114 µM |
| O=[N+]([O-])C(Br)(CO)CO | > 10 µM (inactive) |
| CC(C)Cn1cnc2c1c(=O)n(C)c(=O)n2C | > 10 µM (inactive) |
| Cc1cccc(Nc2cc(Cl)nc(SCC(=O)O)n2)c1C | > 10 µM (inactive) |
| NC(=O)c1cccnc1 | > 10 µM (inactive) |
| O=C(NC1CCN(CCc2c[nH]c3ccccc23)CC1)c1ccccc1 | > 10 µM (inactive) |
| CN1CCC[C@@H]1CCO[C@](C)(c1ccccc1)c1ccc(Cl)cc1 | > 10 µM (inactive) |
| COCC(C)N(C(=O)CCl)c1c(C)csc1C (centres undefined) | > 10 µM (inactive) |
| CC[C@]1(O)C[C@H]2CN(CCc3c([nH]c4ccccc34)[C@@](C(=O)OC)(c3cc4c(cc3OC)N(C=O)[C@H]3[C@@](O)(C(=O)OC)[C@H](OC(C)=O)[C@]5(CC)C=CCN6CC[C@]43[C@@H]65)C2)C1 | 0.0065 µM |
| COC(=O)c1nc(Cl)c(Cl)nc1N | 0.865 µM |
| c1ccc2c(c1)Sc1ccccc1N2CC1CN2CCC1CC2 (centres undefined) | 9.44 µM (inactive) |
| CCOc1ccc2nc3cc(N)ccc3c(N)c2c1 | 4.94 µM |

| SMILES | IC50 |
| --- | --- |
| Oc1ccc(Cl)cc1Sc1cc(Cl)ccc1O | 3.53 µM |
| O=C(Nc1ccc(Cl)cc1)Nc1ccc(Cl)c(Cl)c1 | > 10 µM (inactive) |
| CC(C)=CCNc1ncnc2c1ncn2[C@@H]1O[C@H](CO)[C@@H](O)[C@H]1O | 2.66 µM |
| C1CN(P2(N3CC3)=NP(N3CC3)(N3CC3)=NP(N3CC3)(N3CC3)=N2)CCO1 (centres undefined) | 3.62 µM |
| CC(=O)NC(=O)c1ccccc1O | > 10 µM (inactive) |
| Clc1ccccc1C(c1ccccc1)(c1ccccc1)n1ccnc1 | 3.04 µM |
| CC[C@H](C)C(=O)O[C@H]1C[C@@H](C)C=C2C=C[C@H](C)[C@H](CC[C@@H]3C[C@@H](O)CC(=O)O3)[C@H]21 | 3.27 µM |
| OCCN1CCN(CCCN2c3ccccc3Sc3ccc(C(F)(F)F)cc32)CC1 | > 10 µM (inactive) |
| CC1CCC(C(C)C)C(OC(=O)c2ccccc2O)C1 (centres undefined) | > 10 µM (inactive) |
| Cc1c(O)cccc1C(=O)N[C@@H](CSc1ccccc1)[C@H](O)CN1C[C@H]2CCCC[C@H]2C[C@H]1C(=O)NC(C)(C)C | > 10 µM (inactive) |
| CCCCCCCCCCCCCCCC[N+](C)(C)CCN(Cc1ccc(OC)cc1)c1ncccn1 | 3.07 µM |
| COCc1c(C(C)C)nc(C(C)C)c(/C=C/[C@@H](O)C[C@@H](O)CC(=O)O)c1-c1ccc(F)cc1 | 0.0894 µM |
| NC(=NCCCCCCN=C(N)/N=C(\N)Nc1ccc(Cl)cc1)/N=C(\N)Nc1ccc(Cl)cc1 | 1.35 µM |
| COc1cc(-c2ccc(=O)[nH]n2)ccc1OC(F)F | 1.22 µM |
| CO[C@H]1O[C@@H]2O[C@@]3(C)CC[C@H]4[C@H](C)CC[C@@H]([C@@H]1C)[C@@]24OO3 | > 10 µM (inactive) |
| CC(C)(C)CC(C)(C)c1ccc(OCCOCC[N+](C)(C)Cc2ccccc2)cc1 | 3.74 µM |
| Cc1cc(C(C#N)c2ccc(Cl)cc2)c(Cl)cc1NC(=O)c1cc(I)cc(I)c1O (centres undefined) | > 10 µM (inactive) |
| O=C(Nc1ccc(Oc2ccc(Cl)cc2)c(Cl)c1)c1cc(I)cc(I)c1O | > 10 µM (inactive) |
| COc1cccc2c1C(=O)c1c(O)c3c(c(O)c1C2=O)C[C@@](O)(C(=O)CO)C[C@@H]3O[C@H]1C[C@H](N)[C@H](O)[C@H](C)O1 | 0.0429 µM |
